# According to ChEMBL document CHEMBL4665916, “Human Insulin-like Peptide 5 (INSL5). Identification of a Simplified Version of Two-Chain Analog A13” (ACS Med Chem Lett, 2020):
# Bridge positions count the residues as written; N and C are the ends. Peptide text beside a SMILES is read from it. I, II: the chains in the order shown.
# Columns and labels:
# Relaxin-3 receptor 2 [1] = molecular target: T1, Relaxin-3 receptor 2 (Homo sapiens, UniProt Q8TDU9); assay: Agonist activity at human RXFP4 transfected in CHO-K1 cells co-transfected with pCRE-beta-galactosidase reporter plasmid assessed as inhibition of forskolin-induced cAMP accumulation measured after 6 hrs by beta-galactosidase reporter gene assay; type: functional, cell-based
# T1 sequence (Q8TDU9 whole entry): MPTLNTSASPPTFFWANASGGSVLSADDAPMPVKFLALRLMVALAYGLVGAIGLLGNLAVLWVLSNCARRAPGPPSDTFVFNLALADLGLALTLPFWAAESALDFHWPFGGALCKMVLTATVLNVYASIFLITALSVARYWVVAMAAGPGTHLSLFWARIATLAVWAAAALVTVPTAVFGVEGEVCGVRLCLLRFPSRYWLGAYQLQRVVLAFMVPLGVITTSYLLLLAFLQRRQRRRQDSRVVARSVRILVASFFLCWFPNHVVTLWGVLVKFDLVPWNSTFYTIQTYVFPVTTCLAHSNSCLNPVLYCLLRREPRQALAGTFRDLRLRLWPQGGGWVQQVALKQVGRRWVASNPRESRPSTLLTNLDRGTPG
# Relaxin-3 receptor 2 [2] = molecular target: T1, Relaxin-3 receptor 2; assay: Competitive binding affinity to human RXFP4 receptor transfected in CHO-K1 cells in presence of europium-labeled Eu(A)-R3/I5 by fluorometric analysis; type: cell-based
SMILES,EC50 (Relaxin-3 receptor 2 [1]),Ki (Relaxin-3 receptor 2 [2])
"CC[C@H](C)[C@@H]1NC(=O)[C@H](Cc2ccc(O)cc2)NC(=O)[C@H]([C@@H](C)CC)NC(=O)[C@H](C(C)C)NC(=O)[C@H]([C@@H](C)O)NC(=O)[C@H](CCCNC(=N)N)NC(=O)[C@H]([C@@H](C)CC)NC(=O)[C@H](Cc2ccc(O)cc2)NC(=O)[C@H](CCC(=O)O)NC(=O)[C@H](CC(C)C)NC(=O)CNC(=O)[C@@H](N)CSSC[C@H](N)C(=O)N[C@@H]([C@@H](C)O)C(=O)N[C@@H](CC(=O)O)C(=O)NCC(=O)N[C@@H](C)C(=O)N[C@@H](CO)C(=O)N[C@@H](CCSC)C(=O)N[C@@H](CCCCN)C(=O)N[C@@H](CC(=O)O)C(=O)N[C@@H](CC(C)C)C(=O)N[C@@H](CO)C(=O)N[C@@H](C)C(=O)N[C@@H](CC(C)C)C(=O)N[C@H](C(=O)O)CSSC[C@@H](C(=O)N[C@@H](C)C(=O)N[C@@H](CO)C(=O)N[C@@H](CO)C(=O)N[C@@H](CCCNC(=N)N)C(=O)N[C@@H](Cc2c[nH]c3ccccc23)C(=O)O)NC1=O (I: H-CGLEYIRTVIYICASSRW-OH / II: H-CTDGASMKDLSALC-OH; disulfide I:1-II:1, I:13-II:14)",0.00832 µM,
"CC[C@H](C)[C@@H]1NC(=O)[C@H](Cc2ccc(O)cc2)NC(=O)[C@H]([C@@H](C)CC)NC(=O)[C@H](C(C)C)NC(=O)[C@H]([C@@H](C)O)NC(=O)[C@H](CCCNC(=N)N)NC(=O)[C@H]([C@@H](C)CC)NC(=O)[C@H](Cc2ccc(O)cc2)NC(=O)[C@H](CCC(=O)O)NC(=O)[C@H](CC(C)C)NC(=O)CNC(=O)[C@@H](NC(=O)[C@H](CC(C)C)NC(=O)[C@@H](N)CCCNC(=N)N)CSSC[C@H](N)C(=O)N[C@@H]([C@@H](C)O)C(=O)N[C@@H](CC(=O)O)C(=O)NCC(=O)N[C@@H](C)C(=O)N[C@@H](CO)C(=O)N[C@@H](CCSC)C(=O)N[C@@H](CCCCN)C(=O)N[C@@H](CC(=O)O)C(=O)N[C@@H](CC(C)C)C(=O)N[C@@H](CO)C(=O)N[C@@H](C)C(=O)N[C@@H](CC(C)C)C(=O)N[C@H](C(=O)O)CSSC[C@@H](C(=O)N[C@@H](C)C(=O)N[C@@H](CO)C(=O)N[C@@H](CO)C(=O)N[C@@H](CCCNC(=N)N)C(=O)N[C@@H](Cc2c[nH]c3ccccc23)C(=O)O)NC1=O (I: H-RLCGLEYIRTVIYICASSRW-OH / II: H-CTDGASMKDLSALC-OH; disulfide I:3-II:1, I:15-II:14)",0.0141 µM,0.0501 µM
"CC[C@H](C)[C@@H]1NC(=O)[C@H](Cc2ccc(O)cc2)NC(=O)[C@H]([C@@H](C)CC)NC(=O)[C@H](C(C)C)NC(=O)[C@H]([C@@H](C)O)NC(=O)[C@H](CCCNC(=N)N)NC(=O)[C@H]([C@@H](C)CC)NC(=O)[C@H](Cc2ccc(O)cc2)NC(=O)[C@H](CCC(=O)O)NC(=O)[C@H](CC(C)C)NC(=O)CNC(=O)[C@@H](NC(=O)[C@H](CC(C)C)NC(=O)[C@H](CCCNC(=N)N)NC(=O)[C@@H](NC(=O)[C@@H](N)CO)C(C)C)CSSC[C@H](N)C(=O)N[C@@H]([C@@H](C)O)C(=O)N[C@@H](CC(=O)O)C(=O)NCC(=O)N[C@@H](C)C(=O)N[C@@H](CO)C(=O)N[C@@H](CCSC)C(=O)N[C@@H](CCCCN)C(=O)N[C@@H](CC(=O)O)C(=O)N[C@@H](CC(C)C)C(=O)N[C@@H](CO)C(=O)N[C@@H](C)C(=O)N[C@@H](CC(C)C)C(=O)N[C@H](C(=O)O)CSSC[C@@H](C(=O)N[C@@H](C)C(=O)N[C@@H](CO)C(=O)N[C@@H](CO)C(=O)N[C@@H](CCCNC(=N)N)C(=O)N[C@@H](Cc2c[nH]c3ccccc23)C(=O)O)NC1=O (I: H-SVRLCGLEYIRTVIYICASSRW-OH / II: H-CTDGASMKDLSALC-OH; disulfide I:5-II:1, I:17-II:14)",0.011 µM,0.0347 µM
